Earlier results on one molecule are cited in patent publication US20110020480A1, “USE OF BENZOXAZINOIDS-CONTAINING CEREAL GRAIN PRODUCTS FOR HEALTH-IMPROVING PURPOSES” (priority 2008, published 2011).

The conditions of data set [1]: daily dose.

`COc1ccc2[nH]c(=O)oc2c1` [6-MBOA, 6-methoxy-benzoxazolin-2-one]: the “effect on depression or mood” value with human males is given as “significant positive effect”. Further, the “therapeutic dose for treating depressive states of mind” value in data set [1] is given as “approx. 15 mg daily”. Besides, the “cumulative daily dose for obtaining appetite suppression” value with overweight women is 15 µg.
